{
  "source": "ChEMBL document CHEMBL1201862",
  "about": "“PubChem BioAssay data set” (2004)",
  "assay_in_all_cases": "DTP human tumour cell line panel, 48 h",
  "key": {"[1]": {"test_system": "M19-MEL"}, "[2]": {"test_system": "KM12"}, "[3]": {"test_system": "UACC-62"}, "[4]": {"test_system": "NCI-H23"}, "[5]": {"test_system": "NCI-H226"}, "[6]": {"test_system": "786-0"}, "[7]": {"test_system": "SK-MEL-2"}, "[8]": {"test_system": "A549"}, "[9]": {"test_system": "OVCAR-5"}, "[10]": {"test_system": "EKVX"}, "[11]": {"test_system": "CAKI-1"}, "[12]": {"test_system": "CCRF-CEM"}, "[13]": {"test_system": "RXF 393"}, "[14]": {"test_system": "COLO 205"}, "[15]": {"test_system": "HCT-116"}, "[16]": {"test_system": "SF-295"}, "[17]": {"test_system": "M14"}, "[18]": {"test_system": "ACHN"}, "[19]": {"test_system": "UACC-257"}, "[20]": {"test_system": "HCT-15"}, "[21]": {"test_system": "HL-60"}, "[22]": {"test_system": "DMS-114"}, "[23]": {"test_system": "SK-MEL-28"}, "[24]": {"test_system": "SN12C"}, "[25]": {"test_system": "SR"}, "[26]": {"test_system": "OVCAR-4"}, "[27]": {"test_system": "SK-MEL-5"}, "[28]": {"test_system": "SF-268"}, "[29]": {"test_system": "TK-10"}, "[30]": {"test_system": "HT-29"}, "[31]": {"test_system": "HCC 2998"}, "[32]": {"test_system": "LOX IMVI"}, "[33]": {"test_system": "K562"}, "[34]": {"test_system": "NCI-H460"}, "[35]": {"test_system": "IGROV-1"}, "[36]": {"test_system": "LXFL 529"}, "[37]": {"test_system": "OVCAR-8"}, "[38]": {"test_system": "SNB-78"}, "[39]": {"test_system": "OVCAR-3"}, "[40]": {"test_system": "HOP-62"}, "[41]": {"test_system": "UO-31"}, "[42]": {"test_system": "MOLT-4"}, "[43]": {"test_system": "SNB-19"}, "[44]": {"test_system": "Malme-3M"}, "[45]": {"test_system": "DLD-1"}, "[46]": {"test_system": "SW-620"}, "[47]": {"test_system": "KM-20L2"}, "[48]": {"test_system": "HOP-18"}, "[49]": {"test_system": "U-251"}, "[50]": {"test_system": "SF-539"}, "[51]": {"test_system": "SK-OV-3"}, "[52]": {"test_system": "RPMI-8226"}, "[53]": {"test_system": "NCI-H522"}, "[54]": {"test_system": "HOP-92"}, "[55]": {"test_system": "DMS-273"}, "[56]": {"test_system": "XF498"}},
  "note": "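Tested at 5 concentrations; 48 h exposure; 96-well plates; endpoints linearly interpolated, else capped at highest concentration. The concentration for 50% growth inhibition is given as GI50.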 The source made the active and inactive calls. Rule as the data show it: active = GI50 up to about 1.1 µM and inactive = higher.",
  "data": [
    {"smiles": "Cc1ccc(NC(=O)CC/C(CC(=O)C(C)(C)C)=N/NC(=O)C[N+](C)(C)C)cc1C", "values": [
      {"measurement": "GI50", "setting": "[1]", "result": "> 100 µM (inactive)"},
      {"measurement": "GI50", "setting": "[2]", "result": "> 100 µM (inactive)"},
      {"measurement": "GI50", "setting": "[3]", "result": "> 100 µM (inactive)"},
      {"measurement": "GI50", "setting": "[4]", "result": "> 100 µM (inactive)"},
      {"measurement": "GI50", "setting": "[5]", "result": "> 100 µM (inactive)"},
      {"measurement": "GI50", "setting": "[6]", "result": "18.2 µM (inactive)"},
      {"measurement": "GI50", "setting": "[7]", "result": "> 100 µM (inactive)"},
      {"measurement": "GI50", "setting": "[8]", "result": "21.7 µM (inactive)"},
      {"measurement": "GI50", "setting": "[9]", "result": "> 100 µM (inactive)"},
      {"measurement": "GI50", "setting": "[10]", "result": "> 100 µM (inactive)"},
      {"measurement": "GI50", "setting": "[11]", "result": "> 100 µM (inactive)"},
      {"measurement": "GI50", "setting": "[12]", "result": "> 100 µM (inactive)"},
      {"measurement": "GI50", "setting": "[13]", "result": "> 100 µM (inactive)"},
      {"measurement": "GI50", "setting": "[14]", "result": "> 100 µM (inactive)"},
      {"measurement": "GI50", "setting": "[15]", "result": "> 100 µM (inactive)"},
      {"measurement": "GI50", "setting": "[16]", "result": "> 100 µM (inactive)"},
      {"measurement": "GI50", "setting": "[17]", "result": "> 100 µM (inactive)"},
      {"measurement": "GI50", "setting": "[18]", "result": "> 100 µM (inactive)"},
      {"measurement": "GI50", "setting": "[19]", "result": "> 100 µM (inactive)"},
      {"measurement": "GI50", "setting": "[20]", "result": "> 100", "unit": "µM"},
      {"measurement": "GI50", "setting": "[21]", "result": "> 100 µM (inactive)"},
      {"measurement": "GI50", "setting": "[22]", "result": "> 100 µM (inactive)"},
      {"measurement": "GI50", "setting": "[23]", "result": "> 100 µM (inactive)"},
      {"measurement": "GI50", "setting": "[24]", "result": "> 100 µM (inactive)"},
      {"measurement": "GI50", "setting": "[25]", "result": "84.1 µM (inactive)"},
      {"measurement": "GI50", "setting": "[26]", "result": "> 100 µM (inactive)"},
      {"measurement": "GI50", "setting": "[27]", "result": "> 100 µM (inactive)"},
      {"measurement": "GI50", "setting": "[28]", "result": "> 100 µM (inactive)"},
      {"measurement": "GI50", "setting": "[29]", "result": "> 100 µM (inactive)"},
      {"measurement": "GI50", "setting": "[30]", "result": "> 100 µM (inactive)"},
      {"measurement": "GI50", "setting": "[31]", "result": "> 100 µM (inactive)"},
      {"measurement": "GI50", "setting": "[32]", "result": "> 100 µM (inactive)"},
      {"measurement": "GI50", "setting": "[33]", "result": "> 100 µM (inactive)"},
      {"measurement": "GI50", "setting": "[34]", "result": "> 100 µM (inactive)"},
      {"measurement": "GI50", "setting": "[35]", "result": "> 100 µM (inactive)"},
      {"measurement": "GI50", "setting": "[36]", "result": "> 100 µM (inactive)"},
      {"measurement": "GI50", "setting": "[37]", "result": "> 100 µM (inactive)"},
      {"measurement": "GI50", "setting": "[38]", "result": "> 100 µM (inactive)"},
      {"measurement": "GI50", "setting": "[39]", "result": "> 100 µM (inactive)"},
      {"measurement": "GI50", "setting": "[40]", "result": "> 100 µM (inactive)"},
      {"measurement": "GI50", "setting": "[41]", "result": "> 100 µM (inactive)"},
      {"measurement": "GI50", "setting": "[42]", "result": "> 100 µM (inactive)"},
      {"measurement": "GI50", "setting": "[43]", "result": "> 100 µM (inactive)"},
      {"measurement": "GI50", "setting": "[44]", "result": "> 100 µM (inactive)"},
      {"measurement": "GI50", "setting": "[45]", "result": "> 100 µM (inactive)"},
      {"measurement": "GI50", "setting": "[46]", "result": "> 100 µM (inactive)"},
      {"measurement": "GI50", "setting": "[47]", "result": "> 100 µM (inactive)"},
      {"measurement": "GI50", "setting": "[48]", "result": "> 100 µM (inactive)"},
      {"measurement": "GI50", "setting": "[49]", "result": "> 100 µM (inactive)"},
      {"measurement": "GI50", "setting": "[50]", "result": "18.6 µM (inactive)"},
      {"measurement": "GI50", "setting": "[51]", "result": "> 100 µM (inactive)"}
    ]},
    {"smiles": "Cc1nc2ccccc2c(=O)n1/N=C(\\N=N\\c1cccc(Cl)c1)c1ccccc1Cl", "values": [
      {"measurement": "GI50", "setting": "[1]", "result": "> 100 µM (inactive)"},
      {"measurement": "GI50", "setting": "[3]", "result": "> 100 µM (inactive)"},
      {"measurement": "GI50", "setting": "[4]", "result": "64.9 µM (inactive)"},
      {"measurement": "GI50", "setting": "[6]", "result": "83 µM (inactive)"},
      {"measurement": "GI50", "setting": "[52]", "result": "> 100 µM (inactive)"},
      {"measurement": "GI50", "setting": "[53]", "result": "29 µM (inactive)"},
      {"measurement": "GI50", "setting": "[8]", "result": "> 100 µM (inactive)"},
      {"measurement": "GI50", "setting": "[10]", "result": "69.8 µM (inactive)"},
      {"measurement": "GI50", "setting": "[11]", "result": "> 100 µM (inactive)"},
      {"measurement": "GI50", "setting": "[12]", "result": "> 10 µM (inactive)"},
      {"measurement": "GI50", "setting": "[13]", "result": "21.7 µM (inactive)"},
      {"measurement": "GI50", "setting": "[14]", "result": "> 10 µM (inactive)"},
      {"measurement": "GI50", "setting": "[15]", "result": "36 µM (inactive)"},
      {"measurement": "GI50", "setting": "[16]", "result": "30.4 µM (inactive)"},
      {"measurement": "GI50", "setting": "[17]", "result": "> 100 µM (inactive)"},
      {"measurement": "GI50", "setting": "[54]", "result": "29.9 µM (inactive)"},
      {"measurement": "GI50", "setting": "[20]", "result": "> 100", "unit": "µM"},
      {"measurement": "GI50", "setting": "[21]", "result": "> 10 µM (inactive)"},
      {"measurement": "GI50", "setting": "[24]", "result": "> 100 µM (inactive)"},
      {"measurement": "GI50", "setting": "[27]", "result": "> 100 µM (inactive)"},
      {"measurement": "GI50", "setting": "[29]", "result": "49.4 µM (inactive)"},
      {"measurement": "GI50", "setting": "[30]", "result": "> 100 µM (inactive)"},
      {"measurement": "GI50", "setting": "[32]", "result": "> 100 µM (inactive)"},
      {"measurement": "GI50", "setting": "[33]", "result": "0.57 µM (active)"},
      {"measurement": "GI50", "setting": "[34]", "result": "49.9 µM (inactive)"},
      {"measurement": "GI50", "setting": "[35]", "result": "> 10 µM (inactive)"},
      {"measurement": "GI50", "setting": "[36]", "result": "> 10 µM (inactive)"},
      {"measurement": "GI50", "setting": "[37]", "result": "> 100 µM (inactive)"},
      {"measurement": "GI50", "setting": "[40]", "result": "37.8 µM (inactive)"},
      {"measurement": "GI50", "setting": "[41]", "result": "99.3 µM (inactive)"},
      {"measurement": "GI50", "setting": "[55]", "result": "50.2 µM (inactive)"},
      {"measurement": "GI50", "setting": "[42]", "result": "> 10 µM (inactive)"},
      {"measurement": "GI50", "setting": "[45]", "result": "75.5 µM (inactive)"},
      {"measurement": "GI50", "setting": "[46]", "result": "> 100 µM (inactive)"},
      {"measurement": "GI50", "setting": "[47]", "result": "> 100 µM (inactive)"},
      {"measurement": "GI50", "setting": "[56]", "result": "2.29 µM (inactive)"},
      {"measurement": "GI50", "setting": "[48]", "result": "1.48 µM (inactive)"},
      {"measurement": "GI50", "setting": "[49]", "result": "37.9 µM (inactive)"},
      {"measurement": "GI50", "setting": "[50]", "result": "25.3 µM (inactive)"},
      {"measurement": "GI50", "setting": "[51]", "result": "25.8 µM (inactive)"}
    ]}
  ]
}
